Data from ChEMBL document CHEMBL4007388, “Synthesis and antiproliferative activity of monocationic arylthiophene derivatives” (Eur J Med Chem, 2017).

What was measured:
CCRF-CEM = assay: Growth inhibition of human CCRF-CEM cells incubated for 48 hrs by sulforhodamine B assay; assay type: functional
HL-60(TB) = assay: Growth inhibition of human HL-60(TB) cells incubated for 48 hrs by sulforhodamine B assay; assay type: functional; conditions: HL-60, 48 h
K562 = assay: Growth inhibition of human K562 cells incubated for 48 hrs by sulforhodamine B assay; assay type: functional; conditions: K562, 48 h
MOLT-4 = assay: Growth inhibition of human MOLT4 cells incubated for 48 hrs by sulforhodamine B assay; assay type: functional; conditions: MOLT-4, 48 h
RPMI-8226 = assay: Growth inhibition of human RPMI8226 cells incubated for 48 hrs by sulforhodamine B assay; assay type: functional; conditions: RPMI-8226, 48 h
SR = assay: Growth inhibition of human SR cells incubated for 48 hrs by sulforhodamine B assay; assay type: functional
NCI-H226 = assay: Growth inhibition of human NCI-H226 cells incubated for 48 hrs by sulforhodamine B assay; assay type: functional; conditions: NCI-H226, 48 h
NCI-H460 = assay: Growth inhibition of human NCI-H460 cells incubated for 48 hrs by sulforhodamine B assay; assay type: functional; conditions: NCI-H460, 48 h
NCI-H522 = assay: Growth inhibition of human NCI-H522 cells incubated for 48 hrs by sulforhodamine B assay; assay type: functional; conditions: NCI-H522, 48 h
COLO 205 = assay: Growth inhibition of human COLO205 cells incubated for 48 hrs by sulforhodamine B assay; assay type: functional; conditions: COLO 205, 48 h
HCC 2998 = assay: Growth inhibition of human HCC2998 cells incubated for 48 hrs by sulforhodamine B assay; assay type: functional; conditions: HCC 2998, 48 h
HCT-116 = assay: Growth inhibition of human HCT116 cells incubated for 48 hrs by sulforhodamine B assay; assay type: functional; conditions: HCT-116, 48 h
HT-29 = assay: Growth inhibition of human HT-29 cells incubated for 48 hrs by sulforhodamine B assay; assay type: functional; conditions: HT-29, 48 h
KM12 = assay: Growth inhibition of human KM12 cells incubated for 48 hrs by sulforhodamine B assay; assay type: functional; conditions: KM12, 48 h
SW-620 = assay: Growth inhibition of human SW620 cells incubated for 48 hrs by sulforhodamine B assay; assay type: functional; conditions: SW-620, 48 h
SF-539 = assay: Growth inhibition of human SF539 cells incubated for 48 hrs by sulforhodamine B assay; assay type: functional; conditions: SF-539, 48 h
SNB-19 = assay: Growth inhibition of human SNB19 cells incubated for 48 hrs by sulforhodamine B assay; assay type: functional; conditions: SNB-19, 48 h
SNB-75 = assay: Growth inhibition of human SNB75 cells incubated for 48 hrs by sulforhodamine B assay; assay type: functional; conditions: SNB-75, 48 h
U-251 = assay: Growth inhibition of human U251 cells incubated for 48 hrs by sulforhodamine B assay; assay type: functional; conditions: U-251, 48 h
LOX IMVI = assay: Growth inhibition of human LOXIMVI cells incubated for 48 hrs by sulforhodamine B assay; assay type: functional
Malme-3M = assay: Growth inhibition of human MALME-3M cells incubated for 48 hrs by sulforhodamine B assay; assay type: functional
M14 = assay: Growth inhibition of human M14 cells incubated for 48 hrs by sulforhodamine B assay; assay type: functional; conditions: M14, 48 h
MDA-MB-435 = assay: Growth inhibition of human MDA-MB-435 cells incubated for 48 hrs by sulforhodamine B assay; assay type: functional; conditions: MDA-MB-435, 48 h
SK-MEL-28 = assay: Growth inhibition of human SK-MEL-28 cells incubated for 48 hrs by sulforhodamine B assay; assay type: functional; conditions: SK-MEL-28, 48 h
SK-MEL-5 = assay: Growth inhibition of human SK-MEL-5 cells incubated for 48 hrs by sulforhodamine B assay; assay type: functional; conditions: SK-MEL-5, 48 h
UACC-257 = assay: Growth inhibition of human UACC257 cells incubated for 48 hrs by sulforhodamine B assay; assay type: functional; conditions: UACC-257, 48 h
UACC-62 = assay: Growth inhibition of human UACC62 cells incubated for 48 hrs by sulforhodamine B assay; assay type: functional; conditions: UACC-62, 48 h
OVCAR-3 = assay: Growth inhibition of human OVCAR3 cells incubated for 48 hrs by sulforhodamine B assay; assay type: functional; conditions: OVCAR-3, 48 h
OVCAR-4 = assay: Growth inhibition of human OVCAR4 cells incubated for 48 hrs by sulforhodamine B assay; assay type: functional; conditions: OVCAR-4, 48 h
OVCAR-5 = assay: Growth inhibition of human OVCAR5 cells incubated for 48 hrs by sulforhodamine B assay; assay type: functional; conditions: OVCAR-5, 48 h
NCI/ADR-RES = assay: Growth inhibition of human NCI/ADR-RES cells incubated for 48 hrs by sulforhodamine B assay; assay type: functional
SK-OV-3 = assay: Growth inhibition of human SKOV3 cells incubated for 48 hrs by sulforhodamine B assay; assay type: functional; conditions: SK-OV-3, 48 h
786-0 = assay: Growth inhibition of human 786-O cells incubated for 48 hrs by sulforhodamine B assay; assay type: functional; conditions: 786-0, 48 h
ACHN = assay: Growth inhibition of human ACHN cells incubated for 48 hrs by sulforhodamine B assay; assay type: functional
CAKI-1 = assay: Growth inhibition of human Caki1 cells incubated for 48 hrs by sulforhodamine B assay; assay type: functional; conditions: CAKI-1, 48 h
RXF 393 = assay: Growth inhibition of human RXF393 cells incubated for 48 hrs by sulforhodamine B assay; assay type: functional; conditions: RXF 393, 48 h
SN12C = assay: Growth inhibition of human SN12C cells incubated for 48 hrs by sulforhodamine B assay; assay type: functional
TK-10 = assay: Growth inhibition of human TK10 cells incubated for 48 hrs by sulforhodamine B assay; assay type: functional; conditions: TK-10, 48 h
PC-3 = assay: Growth inhibition of human PC3 cells incubated for 48 hrs by sulforhodamine B assay; assay type: functional; conditions: PC-3, 48 h
DU-145 = assay: Growth inhibition of human DU145 cells incubated for 48 hrs by sulforhodamine B assay; assay type: functional; conditions: DU-145, 48 h
Hs-578T = assay: Growth inhibition of human Hs 578T cells incubated for 48 hrs by sulforhodamine B assay; assay type: functional
BT-549 = assay: Growth inhibition of human BT549 cells incubated for 48 hrs by sulforhodamine B assay; assay type: functional; conditions: BT-549, 48 h
WISH = assay: Cytotoxicity against human WISH cells assessed as reduction in cell viability after 24 hrs by MTT assay; assay type: cell-based
[1] = Antioxidant activity assessed as superoxide dismutase-like activity by measuring inhibition of superoxide radical anion production at 2 uM by NBT reduction assay relative to control; assay type: functional
Escherichia coli = assay: Induction of Escherichia coli genomic DNA cleavage after 1 hr by agarose gel electrophoresis method
Homo sapiens = species: Homo sapiens; assay: Inhibition of PTK in human MCF7 cells at 1 uM preincubated for 2 hrs followed by poly-Glu-Tyr substrate addition by ELISA relative to control; assay type: cell-based
[2] = Growth inhibition of human NCI60 cells at 10 uM after 48 hrs by SRB assay relative to control; values are per cent of control; conditions: NCI60, 48 h

Compound `N=C(N)c1ccc(-c2ccc(-c3ccc(Cl)cc3)s2)cc1` has a GI50 (CCRF-CEM) of 200 nM, a GI50 (HL-60(TB)) of 214 nM and a GI50 (K562) of 202 nM. The GI50 (MOLT-4) was 207 nM, the GI50 (RPMI-8226) was 194 nM and the GI50 (SR) was 249 nM. It also gave a GI50 (NCI-H226) of 451 nM, a GI50 (NCI-H460) of 193 nM and a GI50 (NCI-H522) of 186 nM. It also gave a GI50 (COLO 205) of 203 nM, a GI50 (HCC 2998) of 183 nM and a GI50 (HCT-116) of 170 nM. For the same compound, the GI50 (HT-29) was 177 nM, the GI50 (KM12) was 196 nM and the GI50 (SW-620) was 177 nM. The GI50 (SF-539) was 171 nM, the GI50 (SNB-19) was 194 nM and the GI50 (SNB-75) was 157 nM. It also gave a GI50 (U-251) of 172 nM, a GI50 (LOX IMVI) of 179 nM and a GI50 (Malme-3M) of 219 nM. The GI50 (M14) was 172 nM, the GI50 (MDA-MB-435) was 172 nM and the GI50 (SK-MEL-28) was 176 nM. The GI50 (SK-MEL-5) was 204 nM, the GI50 (UACC-257) was 310 nM and the GI50 (UACC-62) was 178 nM. It also gave a GI50 (OVCAR-3) of 194 nM, a GI50 (OVCAR-4) of 172 nM and a GI50 (OVCAR-5) of 169 nM. For the same compound, the GI50 (NCI/ADR-RES) was 185 nM, the GI50 (SK-OV-3) was 246 nM and the GI50 (786-0) was 178 nM. For the same compound, the GI50 (ACHN) was 180 nM, the GI50 (CAKI-1) was 167 nM and the GI50 (RXF 393) was 157 nM. It also gave a GI50 (SN12C) of 180 nM, a GI50 (TK-10) of 220 nM and a GI50 (PC-3) of 164 nM. For the same compound, the GI50 (DU-145) was 185 nM, the GI50 (Hs-578T) was 200 nM and the GI50 (BT-549) was 1730 nM. The IC50 (WISH) was 146000 nM, the inhibition [1] was 60.6% and the Activity (Escherichia coli) was “Dose-dependent effect”. For the same compound, the inhibition (Homo sapiens) was 98% and the growth percent at 10 µM [2] was -70.5%.
